Assay results from article PMC9846560, “Silver-promoted solid-phase guanidinylation enables the first synthesis of arginine glycosylated Samoamide A cyclopeptide analogue” (Frontiers in Chemistry, 2023).
Converted amounts (≈) assume the structure as drawn. Where a SMILES comes first, the peptide text is derived from it.

Experiment: Solubility test (water solubility, saturated solution)
Assay type: physicochemical
Conditions: water (saturated aqueous solution), from solid: saturated aqueous solution at 25°C, sonicated approx. 10 min, centrifuged, supernatant diluted, UV absorbance at 214 nm against Samoamide A standard curve (C = 0.4646A - 0.0201)
Method: Samoamide A was precisely weighed, and 1 mg was placed in a 10 ml centrifuge tube and diluted to scale with 95% ethanol. Then, 0, 200, 400, 600, 800, 1,000 μl aliquots were pipetted in a 5 ml centrifuge tube and adjusted to 1 ml with 95% ethanol, and the aqueous solutions were measured on a scale, sonicated for 5 min, and placed at room temperature. An additional 1 ml of 95% ethanol was added, and water was added to the same method as the blank. The absorbance values were measured at 214 nm to obtain the linear regression equation of the standard curve.
Sufficient amounts of Samoamide A and its glycosylated derivatives were dissolved in aqueous solutions at a constant temperature of 25°C, sonicated for approximately 10 min, centrifuged and allowed to settle to remove the insoluble matter from the solution, and the upper layer of supernatant was taken, that is, the saturated solution. After the saturated solution was properly diluted, its absorbance value was measured at 214 nm, and the concentration of the saturated solution was calculated by substituting the above equation ([Chevalier et al., 2001]).
Work on `CC[C@H](C)[C@@H]1NC(=O)[C@@H]2CCCN2C(=O)[C@H](Cc2ccccc2)NC(=O)[C@H](C(C)C)NC(=O)[C@H](CC(C)C)NC(=O)[C@@H]2CCCN2C(=O)[C@@H]2CCCN2C(=O)[C@H](Cc2ccccc2)NC1=O` [Samoamide A] (cyclo(LVFPIFPP)) yielded a solubility thermodynamic of 0.73 mg/mL (≈ 801 µM).

Experiment: head-to-tail lactamisation of linear octapeptide (N-terminal Leu or Arg onto C-terminal Val or Arg), PyBOP (3 eq)/HOBt (3 eq)/DIPEA (6 eq), 0 °C to rt, 14 h
Conditions: the molecule shown is the open-chain precursor; 24-membered ring; DCM; 12.0 h
Work on `CC[C@H](C)[C@H](NC(=O)[C@H](Cc1ccccc1)NC(=O)[C@@H]1CCCN1C(=O)[C@H](CCCNC(=N)N[C@@H]1O[C@H](COC(C)=O)[C@@H](OC(C)=O)[C@H](OC(C)=O)[C@H]1NC(C)=O)NC(=O)[C@@H](N)CC(C)C)C(=O)N1CCC[C@H]1C(=O)N[C@@H](Cc1ccccc1)C(=O)N[C@H](C(=O)O)C(C)C` [H-Leu-Arg(N-GlcNAc(OAc)3)-Pro-Phe-Ile-Pro-Phe-Val-OH] yielded a ring closure, overall yield of 20%.

Same assay, conditions: the molecule shown is the open-chain precursor; 24-membered ring; DCM; 14.0 h
`CC[C@H](C)[C@H](NC(=O)[C@H](Cc1ccccc1)NC(=O)[C@@H]1CCCN1C(=O)[C@@H]1CCCN1C(=O)[C@@H](N)CCCNC(=N)NS(=O)(=O)c1c(C)c(C)c2c(c1C)CC(C)(C)O2)C(=O)N1CCC[C@H]1C(=O)N[C@@H](Cc1ccccc1)C(=O)N[C@H](C(=O)O)C(C)C` [H-Arg(Pbf)-Pro-Pro-Phe-Ile-Pro-Phe-Val-OH] gave a ring closure, overall yield of 9%. Molecule `CC[C@H](C)[C@H](NC(=O)[C@H](Cc1ccccc1)NC(=O)[C@@H]1CCCN1C(=O)[C@H](CCCNC(=N)NS(=O)(=O)c1c(C)c(C)c2c(c1C)CC(C)(C)O2)NC(=O)[C@@H](N)CC(C)C)C(=O)N1CCC[C@H]1C(=O)N[C@@H](Cc1ccccc1)C(=O)N[C@H](C(=O)O)C(C)C` [H-Leu-Arg(Pbf)-Pro-Phe-Ile-Pro-Phe-Val-OH] has a ring closure, overall yield of 10%. Molecule `CC[C@H](C)[C@H](NC(=O)[C@H](Cc1ccccc1)NC(=O)[C@H](CCCNC(=N)NS(=O)(=O)c1c(C)c(C)c2c(c1C)CC(C)(C)O2)NC(=O)[C@@H]1CCCN1C(=O)[C@@H](N)CC(C)C)C(=O)N1CCC[C@H]1C(=O)N[C@@H](Cc1ccccc1)C(=O)N[C@H](C(=O)O)C(C)C` [H-Leu-Pro-Arg(Pbf)-Phe-Ile-Pro-Phe-Val-OH] has a ring closure, overall yield of 10%. With `CC[C@H](C)[C@H](NC(=O)[C@H](CCCNC(=N)NS(=O)(=O)c1c(C)c(C)c2c(c1C)CC(C)(C)O2)NC(=O)[C@@H]1CCCN1C(=O)[C@@H]1CCCN1C(=O)[C@@H](N)CC(C)C)C(=O)N1CCC[C@H]1C(=O)N[C@@H](Cc1ccccc1)C(=O)N[C@H](C(=O)O)C(C)C` [H-Leu-Pro-Pro-Arg(Pbf)-Ile-Pro-Phe-Val-OH] the ring closure, overall yield was 8%. Work on `Cc1c(C)c(S(=O)(=O)NC(=N)NCCC[C@H](NC(=O)[C@H](Cc2ccccc2)NC(=O)[C@@H]2CCCN2C(=O)[C@@H]2CCCN2C(=O)[C@@H](N)CC(C)C)C(=O)N2CCC[C@H]2C(=O)N[C@@H](Cc2ccccc2)C(=O)N[C@H](C(=O)O)C(C)C)c(C)c2c1OC(C)(C)C2` [H-Leu-Pro-Pro-Phe-Arg(Pbf)-Pro-Phe-Val-OH] yielded a ring closure, overall yield of 6%. With `CC[C@H](C)[C@H](NC(=O)[C@H](Cc1ccccc1)NC(=O)[C@@H]1CCCN1C(=O)[C@@H]1CCCN1C(=O)[C@@H](N)CC(C)C)C(=O)N[C@@H](CCCNC(=N)NS(=O)(=O)c1c(C)c(C)c2c(c1C)CC(C)(C)O2)C(=O)N[C@@H](Cc1ccccc1)C(=O)N[C@H](C(=O)O)C(C)C` [H-Leu-Pro-Pro-Phe-Ile-Arg(Pbf)-Phe-Val-OH] the ring closure, overall yield was 5%. Molecule `CC[C@H](C)[C@H](NC(=O)[C@H](Cc1ccccc1)NC(=O)[C@@H]1CCCN1C(=O)[C@@H]1CCCN1C(=O)[C@@H](N)CC(C)C)C(=O)N1CCC[C@H]1C(=O)N[C@@H](CCCNC(=N)NS(=O)(=O)c1c(C)c(C)c2c(c1C)CC(C)(C)O2)C(=O)N[C@H](C(=O)O)C(C)C` [H-Leu-Pro-Pro-Phe-Ile-Pro-Arg(Pbf)-Val-OH] has a ring closure, overall yield of 4%. `CC[C@H](C)[C@H](NC(=O)[C@H](Cc1ccccc1)NC(=O)[C@@H]1CCCN1C(=O)[C@@H]1CCCN1C(=O)[C@@H](N)CC(C)C)C(=O)N1CCC[C@H]1C(=O)N[C@@H](Cc1ccccc1)C(=O)N[C@@H](CCCNC(=N)NS(=O)(=O)c1c(C)c(C)c2c(c1C)CC(C)(C)O2)C(=O)O` [H-Leu-Pro-Pro-Phe-Ile-Pro-Phe-Arg(Pbf)-OH] gave a ring closure, overall yield of 6%. With `CC[C@H](C)[C@H](NC(=O)[C@H](Cc1ccccc1)NC(=O)[C@@H]1CCCN1C(=O)[C@@H]1CCCN1C(=O)[C@@H](N)CC(C)C)C(=O)N1CCC[C@H]1C(=O)N[C@@H](Cc1ccccc1)C(=O)N[C@H](C(=O)O)C(C)C` [H-Leu-Pro-Pro-Phe-Ile-Pro-Phe-Val-OH] the ring closure, overall yield was 15%.
